Patent publication US8586579B2, “Anellated pyridine compounds” (Hoffmann-La Roche Inc., priority 2010, dated 2013)
Read-outs that look alike come from different tables or passages of the source.

Tests used:
human 5-HT2A receptor = human 5-HT2A receptor (Homo sapiens (Human), UniProt P28223); assay: Radioligand binding assay, [3H]-ketanserin, human 5-HT2A receptor
In short: (§1)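 Incubation was 1 h at RT, using 1.1 nM [3H]-ketanserin at 5-HT2A or 0.5 nM [3H]-spiperone at D3, on membranes of transiently transfected HEK293 EBNA cells. Nonspecific binding was set with 10 μM unlabelled spiperone.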

human D3 receptor = human D3 receptor (Homo sapiens (Human), UniProt P35462); assay: Radioligand binding assay, [3H]-spiperone, human D3 receptor; conditions: membranes of HEK293 EBNA cells expressing human D3; 0.5 nM [3H]-spiperone
Chain of human D3 receptor (P35462 whole entry): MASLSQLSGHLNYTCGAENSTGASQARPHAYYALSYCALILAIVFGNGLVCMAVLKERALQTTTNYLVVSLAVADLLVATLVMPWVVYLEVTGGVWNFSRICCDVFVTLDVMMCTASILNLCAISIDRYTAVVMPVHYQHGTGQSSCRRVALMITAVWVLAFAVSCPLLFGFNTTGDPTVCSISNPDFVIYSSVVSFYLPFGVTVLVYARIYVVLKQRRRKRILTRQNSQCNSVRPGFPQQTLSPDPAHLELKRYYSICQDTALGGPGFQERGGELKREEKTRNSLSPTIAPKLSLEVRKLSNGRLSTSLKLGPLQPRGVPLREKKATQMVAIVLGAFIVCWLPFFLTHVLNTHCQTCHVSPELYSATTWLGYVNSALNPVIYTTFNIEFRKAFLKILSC
In short: as §1

human D2 receptor = human D2 receptor (Homo sapiens (Human), UniProt P14416); assay: Radioligand binding assay, [3H]-spiperone, human D2 receptor; conditions: membranes of HEK293 EBNA cells expressing human D2; 0.7 nM [3H]-spiperone
Chain of human D2 receptor (P14416 whole entry): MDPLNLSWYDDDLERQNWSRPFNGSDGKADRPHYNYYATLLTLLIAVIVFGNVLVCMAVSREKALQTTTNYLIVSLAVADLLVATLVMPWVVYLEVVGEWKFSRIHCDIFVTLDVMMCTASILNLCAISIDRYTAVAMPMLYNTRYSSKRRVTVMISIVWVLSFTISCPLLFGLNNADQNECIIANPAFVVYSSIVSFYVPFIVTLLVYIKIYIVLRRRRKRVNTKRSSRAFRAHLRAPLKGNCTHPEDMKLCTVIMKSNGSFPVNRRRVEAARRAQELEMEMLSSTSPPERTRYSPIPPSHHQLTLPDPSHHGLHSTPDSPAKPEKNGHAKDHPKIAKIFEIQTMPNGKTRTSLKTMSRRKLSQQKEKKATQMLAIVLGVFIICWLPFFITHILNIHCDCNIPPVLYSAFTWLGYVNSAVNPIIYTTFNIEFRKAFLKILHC
In short: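 Competition binding used ~0.7 nM [3H]-spiperone, 1 h at room temperature, pH 7.4 Tris/salt buffer, on transiently transfected HEK293 EBNA membranes bearing human D2.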

[1] = membranes of HEK293 EBNA cells expressing human 5-HT2A, 1.1 nM [3H]-ketanserin

Chain of human 5-HT2A receptor (P28223 whole entry): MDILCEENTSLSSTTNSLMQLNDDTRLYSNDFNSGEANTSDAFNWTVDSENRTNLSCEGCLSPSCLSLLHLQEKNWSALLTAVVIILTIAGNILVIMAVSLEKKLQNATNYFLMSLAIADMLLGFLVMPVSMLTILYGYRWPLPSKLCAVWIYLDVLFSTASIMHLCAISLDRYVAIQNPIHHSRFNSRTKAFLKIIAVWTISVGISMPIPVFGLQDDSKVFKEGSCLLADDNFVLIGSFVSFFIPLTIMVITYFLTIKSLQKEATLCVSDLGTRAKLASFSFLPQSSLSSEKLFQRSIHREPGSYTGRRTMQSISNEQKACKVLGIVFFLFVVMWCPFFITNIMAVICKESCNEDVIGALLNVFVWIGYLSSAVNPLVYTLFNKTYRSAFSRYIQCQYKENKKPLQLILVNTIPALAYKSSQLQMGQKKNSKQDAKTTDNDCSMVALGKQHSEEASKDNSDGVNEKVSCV

Compound | melting point [°C] | Ki (human 5-HT2A receptor; [1]) [nM] | Ki (human D3 receptor) [nM] | Ki (human D2 receptor) [nM] | Ki (human 5-HT2A receptor) [nM]
CCCC(=O)N[C@H]1CC[C@H](CCN2CCN(c3nccc4c3CCO4)CC2)CC1 [Example 92, trans-N-(4-{2-[4-(2,3-Dihydro-furo[3,2-c]pyridin-4-yl)-piperazin-1-yl]-ethyl}-cyclohexyl)-butyramide] | 191 | 23.1 | 15.4 | 828 | 
O=C(N[C@H]1CC[C@H](CCN2CCN(c3nccc4c3CCO4)CC2)CC1)c1ccc(N2CCOCC2)cc1 [Example 57, trans-N-(4-{2-[4-(2,3-Dihydro-furo[3,2-c]pyridin-4-yl)-piperazin-1-yl]-ethyl}-cyclohexyl)-4-morpholin-4-yl-benzamide] | 228.5 | 4.52 | 16.9 | 867 | 
O=C(N[C@H]1CC[C@H](CCN2CCN(c3nccc4c3CCO4)CC2)CC1)c1ccc(C(F)(F)F)cc1 [Example 47, trans-N-(4-{2-[4-(2,3-Dihydro-furo[3,2-c]pyridin-4-yl)-piperazin-1-yl]-ethyl}-cyclohexyl)-4-trifluoromethyl-benzamide] | 227 | 18.8 | 57 | 871 | 
CC(C)C(=O)N[C@H]1CC[C@H](CCN2CCN(c3nccc4c3CCO4)CC2)CC1 [Example 75, trans-N-(4-{2-[4-(2,3-Dihydro-furo[3,2-c]pyridin-4-yl)-piperazin-1-yl]-ethyl}-cyclohexyl)-isobutyramide] | 219 |  | 16.6 | 705 | 10.2
CO[C@H](C)C(=O)N[C@H]1CC[C@H](CCN2CCN(c3nccc4c3CCO4)CC2)CC1 [Example 135, trans-(R)—N-(4-{2-[4-(2,3-Dihydro-furo[3,2-c]pyridin-4-yl)-piperazin-1-yl]-ethyl}-cyclohexyl)-2-methoxy-propionamide] | 159 | 7 | 109 | 680 | 
CC(C)CC(=O)N[C@H]1CC[C@H](CCN2CCN(c3nccc4c3CCO4)CC2)CC1 [Example 71, trans-N-(4-{2-[4-(2,3-Dihydro-furo[3,2-c]pyridin-4-yl)-piperazin-1-yl]-ethyl}-cyclohexyl)-3-methyl-butyramide] | 202.5 | 15.7 | 10.9 | 655 | 
O=C(N[C@H]1CC[C@H](CCN2CCN(c3nccc4c3CCO4)CC2)CC1)c1ccc(Cl)cc1 [Example 46, trans-4-Chloro-N-(4-{2-[4-(2,3-dihydro-furo[3,2-c]pyridin-4-yl)-piperazin-1-yl]-ethyl}-cyclohexyl)-benzamide] | 226.5 |  | 13.2 | 289 | 14.8
O=C(N[C@H]1CC[C@H](CCN2CCN(c3nccc4c3CCO4)CC2)CC1)c1ccc2ncccc2c1 [Example 128, Quinoline-6-carboxylic acid trans-(4-{2-[4-(2,3-dihydro-furo[3,2-c]pyridin-4-yl)-piperazin-1-yl]-ethyl}-cyclohexyl)-amide] | 227 | 23.2 | 20.5 | 501 | 
COCCC(=O)N[C@H]1CC[C@H](CCN2CCN(c3nccc4c3CCO4)CC2)CC1 [Example 35, trans-N-(4-{2-[4-(2,3-Dihydrofuro[3,2-c]pyridin-4-yl)-piperazin-1-yl]-ethyl}-cyclohexyl)-3-methoxypropanamide] | 246.5 | 24.1 | 17.4 | 1490 | 
O=C(CC1C[C@H](O)CO1)N[C@H]1CC[C@H](CCN2CCN(c3nccc4c3CCO4)CC2)CC1 (stereo in doubt) [Example 91, trans-N-(4-{2-[4-(2,3-Dihydro-furo[3,2-c]pyridin-4-yl)-piperazin-1-yl]-ethyl}-cyclohexyl)-2-((S)-4-hydroxy-tetrahydro-furan-2-yl)-acetamide] | 155 | 22.5 | 14.2 | 926 | 
O=C(N[C@H]1CC[C@H](CCN2CCN(c3nccc4c3CCO4)CC2)CC1)C1(O)CC1 [Example 58, 1-Hydroxy-cyclopropanecarboxylic acid trans-(4-{2-[4-(2,3-dihydro-furo[3,2-c]pyridin-4-yl)-piperazin-1-yl]-ethyl}-cyclohexyl)-amide] | 174.5 | 5.92 | 27.1 | 593 | 
CC(C)(C)C(=O)N[C@H]1CC[C@H](CCN2CCN(c3nccc4c3CCO4)CC2)CC1 [Example 70, trans-N-(4-{2-[4-(2,3-Dihydro-furo[3,2-c]pyridin-4-yl)-piperazin-1-yl]-ethyl}-cyclohexyl)-2,2-dimethyl-propionamide] | 185 |  | 59.2 | 524 | 9.4
O=C(C[C@H]1CCCO1)N[C@H]1CC[C@H](CCN2CCN(c3nccc4c3CCO4)CC2)CC1 [Example 68, trans-N-(4-{2-[4-(2,3-Dihydro-furo[3,2-c]pyridin-4-yl)-piperazin-1-yl]-ethyl}-cyclohexyl)-2-(R)-(tetrahydro-furan-2-yl)-acetamide] | 183 |  | 27.1 | 915 | 14.6
CC(C)(C)c1ccc(C(=O)N[C@H]2CC[C@H](CCN3CCN(c4nccc5c4CCO5)CC3)CC2)cc1 [Example 131, trans-4-tert-Butyl-N-(4-{2-[4-(2,3-dihydro-furo[3,2-c]pyridin-4-yl)-piperazin-1-yl]-ethyl}-cyclohexyl)-benzamide] | 186.5 |  | 147 | 1660 | 66.7
CCCCC(=O)N[C@H]1CC[C@H](CCN2CCN(c3nccc4c3CCO4)CC2)CC1 [Example 94, Pentanoic acid trans-(4-{2-[4-(2,3-dihydro-furo[3,2-c]pyridin-4-yl)-piperazin-1-yl]-ethyl}-cyclohexyl)-amide] | 180.5 | 24.7 | 19.2 | 1140 | 
O=C(CCO)N[C@H]1CC[C@H](CCN2CCN(c3nccc4c3CCO4)CC2)CC1 [Example 41, trans-N-(4-{2-[4-(2,3-Dihydrofuro[3,2-c]pyridin-4-yl)-piperazin-1-yl]-ethyl}-cyclohexyl)-3-hydroxypropanamide] | 173 |  | 11.5 | 734 | 35.7
CO[C@H]1CC[C@H](CC(=O)N[C@H]2CC[C@H](CCN3CCN(c4nccc5c4CCO5)CC3)CC2)C1 [Example 90, trans-N-(4-{2-[4-(2,3-Dihydro-furo[3,2-c]pyridin-4-yl)-piperazin-1-yl]-ethyl}-cyclohexyl)-2-((1S,3S)-3-methoxy-cyclopentyl)-acetamide] | 241 | 22.4 | 19.4 | 1290 | 
CC(C)=CC(=O)N[C@H]1CC[C@H](CCN2CCN(c3nccc4c3CCO4)CC2)CC1 [Example 80, 3-Methyl-but-2-enoic acid trans-(4-{2-[4-(2,3-dihydro-furo[3,2-c]pyridin-4-yl)-piperazin-1-yl]-ethyl}-cyclohexyl)-amide] | 164.5 | 16.2 | 15.4 | 198 | 
